The values that follow come from BindingDB's records for doi:10.1021/acs.jmedchem.1c00726 (University of Florida, 2021).

In the assay the target is 5-hydroxytryptamine receptor 2B (Homo sapiens, UniProt P41595). The assay is described as follows: Displacement of [3H]LSD from human recombinant 5-HT2B receptor expressed in CHO cells by radioligand completion assay relative to control.
Chain of 5-hydroxytryptamine receptor 2B (P41595 whole entry): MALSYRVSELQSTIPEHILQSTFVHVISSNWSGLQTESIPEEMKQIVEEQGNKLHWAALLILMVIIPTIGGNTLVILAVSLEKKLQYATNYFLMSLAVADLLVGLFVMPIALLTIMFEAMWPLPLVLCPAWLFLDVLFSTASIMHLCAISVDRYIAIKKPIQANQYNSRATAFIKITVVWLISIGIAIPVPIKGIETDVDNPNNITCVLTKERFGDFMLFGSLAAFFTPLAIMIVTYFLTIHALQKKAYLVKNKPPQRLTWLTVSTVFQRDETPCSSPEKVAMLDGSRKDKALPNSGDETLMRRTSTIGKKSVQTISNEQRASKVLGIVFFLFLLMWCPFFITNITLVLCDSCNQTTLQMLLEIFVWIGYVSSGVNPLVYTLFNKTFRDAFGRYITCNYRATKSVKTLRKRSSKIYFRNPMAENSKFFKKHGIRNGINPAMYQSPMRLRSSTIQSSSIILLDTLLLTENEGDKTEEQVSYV

Turning to `COc1cc(C[C@@H](C)N)c(OC)cc1I` [(R)-2-(4-iodo-2,5-dimethoxyphenyl)-1-methylethylamine], the Ki (as a rule, the equilibrium dissociation constant of an inhibitor or competing ligand from its target) turned out to be 2.2 nM.
